In patent publication US20040235049A1, “Device for presentation of polypeptides able to be used as a chip for miniaturised detection of molecules” (priority 2001, published 2004):
Where two headings read alike, the source gives them in different places.

What was measured:
[1] = target: rhodamine-conjugated streptavidin (Streptomyces avidinii, UniProt P22629); settings: streptavidin 10^−3 mg/ml
Method: (§1) Each concentration is spotted 6 times per slide.
The slides are then incubated in the presence of 150 μl of a 10^−3 mg/ml solution of rhodamine-conjugated streptavidin (solution of streptavidin Tetramethyl Rhodamine conjugate (Molecular Probes, Oregon, USA)) diluted in an 0.01 M PBS buffer, pH 7.2 in 15 the presence of different concentrations of biotin (10^−3 M, 10^−4 M, 10^−5 M, 10^−7 M and 0 M under a glass cover slip (24×60 mm). The slides are incubated for 2 hours at 37° C. under a moist atmosphere. A series of 4 successive washings is carried out with PBS solution to which 0.05% Tween 20 had been added. The slides are then rinsed, dried and analysed as stated above.

[2] = tested on: Rhodamine Conjugated affinity Purified anti-Biotin [goat]
Method: as §1
(§2) The slides are incubated for 2 hours at 37° C. under a moist atmosphere. A series of 4 successive washings is carried out with PBS solution to which 0.05% Tween 20 had been added. The slides are then rinsed with a deionised water wash-bottle then with 95° ethanol for 1 minute, then dried for 15 minutes in the ambient atmosphere.
(§3) The results expressed in the following table correspond to the mean fluorescence and to the standard deviation of the 6 spots of each concentration obtained after incubation of the rhodamine-conjugated streptavidin and the rhodamine- conjugated anti-biotin antibody respectively.

[3] = target: Streptavidin Tetramethyl Rhodamine conjugate (Streptomyces avidinii, UniProt P22629)
Method: as §1, §2, §3

[4] = tested on: antibodies of positive and negative sera (HCV); experiment: Ketone-functionalised (transaminated) peptide on semicarbazide slides tested with sera; format: binding, human; settings: 16 spots, peptide 10^−4 M
Method: The slides are then incubated in the presence of 100 μl of serum from patients diluted to 1/50th in the dilution buffer (PBS+2.5% of powdered semi-skimmed milk+0.5% of Tween 20) under a glass cover slip (24×60 mm). […] 4 successive washes are then effected for 3 minutes in PBS solution with 0.05% added Tween 20.
The reaction of the antibodies of patients with the polypeptides attached to the slide is detected by the binding onto these of fluorescent anti-human IgG antibodies. 100 μl of solution of anti-human IgG-A-M antibodies labelled with rhodamine (TRITC) (Jackson ImmunoResearch Laboratories, Baltimore, US) diluted to 1/100th in the dilution buffer (PBS+2.5% of powdered semi-skimmed milk+0.5% of Tween 20) are then deposited onto each slide. Each slide is then covered with a cover slip (24×60 mm) and left to incubate for 1 hours at 37° C. under a moist atmosphere. A series of 4 successive washes in PBS solution with 0.05% of added Tween 20 is carried out.
The fluorescence emitted is then detected using a slide scanner (L35/PMT 50, Affymetrix 418 Chip Scanner, MWG).
The 2 peptides HCVpc21-Met (non-transaminated) and pc21-TA (transaminated) and also the peptide HCVpc21-2 (described in Example 3) were attached to semicarbazide slides at the rate of 16 spots of each peptide per slide.
Each peptide was deposited at the concentration of 10^−4 M.
The slides were incubated in the presence of 4 positive sera and 2 negative sera.

Streptavidin Tetramethyl Rhodamine conjugate, sequence (P22629 37-163 limits assumed): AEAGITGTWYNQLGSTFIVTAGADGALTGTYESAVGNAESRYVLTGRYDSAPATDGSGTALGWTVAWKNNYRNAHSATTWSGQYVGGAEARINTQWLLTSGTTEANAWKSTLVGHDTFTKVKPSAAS
rhodamine-conjugated streptavidin, sequence (P22629 37-163 limits assumed): as above

## H-Lys(biotin-G2)AYLAG-NH(CH2)3O(CH2)2O(CH2)2O(CH2)3NHCOCHO [pep-Biotine]
[1]; pep-Biotine 10^−3 mg/ml, biotin in competition 0 M
  mean fluorescence (6 spots): 29836
[1]; pep-Biotine 10^−3 mg/ml, biotin in competition 10^−3 M
  mean fluorescence (6 spots): 376
[1]; pep-Biotine 10^−3 mg/ml, biotin in competition 10^−4 M
  mean fluorescence (6 spots): 2237
[1]; pep-Biotine 10^−3 mg/ml, biotin in competition 10^−6 M
  mean fluorescence (6 spots): 16683
[1]; pep-Biotine 10^−3 mg/ml, biotin in competition 10^−7 M
  mean fluorescence (6 spots): 17132
[1]; pep-Biotine 10^−4 mg/ml, biotin in competition 0 M
  mean fluorescence (6 spots): 24666
[1]; pep-Biotine 10^−4 mg/ml, biotin in competition 10^−3 M
  mean fluorescence (6 spots): 207
[1]; pep-Biotine 10^−4 mg/ml, biotin in competition 10^−4 M
  mean fluorescence (6 spots): 961
[1]; pep-Biotine 10^−4 mg/ml, biotin in competition 10^−6 M
  mean fluorescence (6 spots): 9414
[1]; pep-Biotine 10^−4 mg/ml, biotin in competition 10^−7 M
  mean fluorescence (6 spots): 12178
[1]; pep-Biotine 10^−5 mg/ml, biotin in competition 0 M
  mean fluorescence (6 spots): 20902
[1]; pep-Biotine 10^−5 mg/ml, biotin in competition 10^−3 M
  mean fluorescence (6 spots): 107
[1]; pep-Biotine 10^−5 mg/ml, biotin in competition 10^−4 M
  mean fluorescence (6 spots): 322
[1]; pep-Biotine 10^−5 mg/ml, biotin in competition 10^−6 M
  mean fluorescence (6 spots): 3588
[1]; pep-Biotine 10^−5 mg/ml, biotin in competition 10^−7 M
  mean fluorescence (6 spots): 6129
[1]; pep-Biotine 10^−6 mg/ml, biotin in competition 0 M
  mean fluorescence (6 spots): 10737
[1]; pep-Biotine 10^−6 mg/ml, biotin in competition 10^−3 M
  mean fluorescence (6 spots): 78
[1]; pep-Biotine 10^−6 mg/ml, biotin in competition 10^−4 M
  mean fluorescence (6 spots): 189
[1]; pep-Biotine 10^−6 mg/ml, biotin in competition 10^−6 M
  mean fluorescence (6 spots): 2350
[1]; pep-Biotine 10^−6 mg/ml, biotin in competition 10^−7 M
  mean fluorescence (6 spots): 2611
[2]; pep-Biotine 10^−3 mg/ml, anti-biotin antibody 10^−1 mg/ml
  mean fluorescence (6 spots): 15350
[2]; pep-Biotine 10^−3 mg/ml, anti-biotin antibody 10^−2 mg/ml
  mean fluorescence (6 spots): 13113
[2]; pep-Biotine 10^−3 mg/ml, anti-biotin antibody 10^−3 mg/ml
  mean fluorescence (6 spots): 6828
[2]; pep-Biotine 10^−3 mg/ml, anti-biotin antibody 10^−4 mg/ml
  mean fluorescence (6 spots): 2271
[2]; pep-Biotine 10^−4 mg/ml, anti-biotin antibody 10^−1 mg/ml
  mean fluorescence (6 spots): 14721
[2]; pep-Biotine 10^−4 mg/ml, anti-biotin antibody 10^−2 mg/ml
  mean fluorescence (6 spots): 9121
[2]; pep-Biotine 10^−4 mg/ml, anti-biotin antibody 10^−3 mg/ml
  mean fluorescence (6 spots): 4981
[2]; pep-Biotine 10^−4 mg/ml, anti-biotin antibody 10^−4 mg/ml
  mean fluorescence (6 spots): 1535
[2]; pep-Biotine 10^−5 mg/ml, anti-biotin antibody 10^−1 mg/ml
  mean fluorescence (6 spots): 10932
[2]; pep-Biotine 10^−5 mg/ml, anti-biotin antibody 10^−2 mg/ml
  mean fluorescence (6 spots): 6849
[2]; pep-Biotine 10^−5 mg/ml, anti-biotin antibody 10^−3 mg/ml
  mean fluorescence (6 spots): 3377
[2]; pep-Biotine 10^−5 mg/ml, anti-biotin antibody 10^−4 mg/ml
  mean fluorescence (6 spots): 1249
[2]; pep-Biotine 10^−6 mg/ml, anti-biotin antibody 10^−1 mg/ml
  mean fluorescence (6 spots): 6606
[2]; pep-Biotine 10^−6 mg/ml, anti-biotin antibody 10^−2 mg/ml
  mean fluorescence (6 spots): 2947
[2]; pep-Biotine 10^−6 mg/ml, anti-biotin antibody 10^−3 mg/ml
  mean fluorescence (6 spots): 791
[2]; pep-Biotine 10^−6 mg/ml, anti-biotin antibody 10^−4 mg/ml
  mean fluorescence (6 spots): 385
[3]; pep-Biotine 10^−3 mg/ml, streptavidin 10^−1 mg/ml
  mean fluorescence (6 spots): 34660
[3]; pep-Biotine 10^−3 mg/ml, streptavidin 10^−3 mg/ml
  mean fluorescence (6 spots): 29836
[3]; pep-Biotine 10^−3 mg/ml, streptavidin 10^−4 mg/ml
  mean fluorescence (6 spots): 13816
[3]; pep-Biotine 10^−4 mg/ml, streptavidin 10^−1 mg/ml
  mean fluorescence (6 spots): 31781
[3]; pep-Biotine 10^−4 mg/ml, streptavidin 10^−3 mg/ml
  mean fluorescence (6 spots): 24666
[3]; pep-Biotine 10^−4 mg/ml, streptavidin 10^−4 mg/ml
  mean fluorescence (6 spots): 7931
[3]; pep-Biotine 10^−5 mg/ml, streptavidin 10^−1 mg/ml
  mean fluorescence (6 spots): 26524
[3]; pep-Biotine 10^−5 mg/ml, streptavidin 10^−3 mg/ml
  mean fluorescence (6 spots): 20902
[3]; pep-Biotine 10^−5 mg/ml, streptavidin 10^−4 mg/ml
  mean fluorescence (6 spots): 7673
[3]; pep-Biotine 10^−6 mg/ml, streptavidin 10^−1 mg/ml
  mean fluorescence (6 spots): 18500
[3]; pep-Biotine 10^−6 mg/ml, streptavidin 10^−3 mg/ml
  mean fluorescence (6 spots): 10737
[3]; pep-Biotine 10^−6 mg/ml, streptavidin 10^−4 mg/ml
  mean fluorescence (6 spots): 2124

## H-MTNRRPQDVKFPGGGQIVGGVYLLPRRGPRLG-NH2 [pc21-Met, non-transaminated control peptide]
[4]; Serum 41, ELISA o.d. 1.4
  Mean Fluorescence: 960
[4]; Serum 43, ELISA o.d. 1.7
  Mean Fluorescence: 2810
[4]; Serum 45, ELISA o.d. 0.7
  Mean Fluorescence: 356
[4]; Serum 48, negative
  Mean Fluorescence: 59
[4]; Serum 53, ELISA o.d. 2.7
  Mean Fluorescence: 7741
[4]; Serum 55, negative
  Mean Fluorescence: 55
